Earlier results in patent EP3811932A1, “DOSAGE FORM OF APALUTAMIDE” (Zentiva K.S., priority 2019, dated 2021).

Settings: over a wide range of pH values

solubility in aqueous media: practically insoluble
SMILES: CNC(=O)c1ccc(N2C(=S)N(c3cnc(C#N)c(C(F)(F)F)c3)C(=O)C23CCC3)cc1F [Apalutamide, 4-[7-[6-cyano-5-(trifluoromethyl)pyridin-3-yl]-8-oxo-6-thioxo-5,7-diazaspiro[3.4]octan-5-yl]-2-fluoro-N-methylbenzamide]
